Active and inactive are the calls of the source. The calls are words filed in the database; no cut-off is given here.
Legend:
C2C12 [1] = assay: Cytotoxicity against mouse C2C12 cells assessed as cell viability up to 100 uM after 24 hrs by CellTox green assay; type: cell-based; details: c2c12, 24 h
C2C12 [2] = assay: Upregulation of mitochondrial function in mouse C2C12 cells assessed as increase in mitochondrial ATP level at 10 uM after 1 hr by ToxGlo assay relative to control; type: functional, cell-based
C2C12 [3] = assay: Upregulation of mitochondrial function in mouse C2C12 cells assessed as increase in mitochondrial oxygen consumption rate at 10 uM after 1 hr relative to control; type: functional, cell-based

O=C([O-])c1ccc[n+]([C@H]2O[C@H](COC(=O)c3ccc(O)cc3)[C@@H](O)[C@H]2O)c1
Activity (C2C12 [1]): Non-toxic
Activity (C2C12 [2]): Active
Activity (C2C12 [3]): Active

Source: ChEMBL document CHEMBL3585242, “Pyridine Nucleosides Neopetrosides A and B from a Marine Neopetrosia sp. Sponge. Synthesis of Neopetroside A and Its β-Riboside Analogue” (J Nat Prod, 2015)
